Data as given in patent EP4122917A1, “C2-THIOETHER […] AND TETRAMERS AND USE THEREOF” (priority 2021, dated 2023).

System: SARS-CoV-2 virus carrying the D614G mutation in the S protein
Type: cell-based
Settings: read-out: IC50 (µM) SARS-CoV-2 (Vero E6)

With NCC(=O)NC(CCC(=O)N[C@@H](Cc1c(Sc2ccc([N+](=O)[O-])cc2)[nH]c2ccccc12)C(=O)O)(CCC(=O)N[C@@H](Cc1c(Sc2ccc([N+](=O)[O-])cc2)[nH]c2ccccc12)C(=O)O)CCC(=O)N[C@@H](Cc1c(Sc2ccc([N+](=O)[O-])cc2)[nH]c2ccccc12)C(=O)O [Compound 7a] as the compound, how does the IC50 read?
Its IC50 is 3.02 µM.

How did the IC50 turn out when CC(=O)c1ccc(Sc2[nH]c3ccccc3c2C[C@H](NC(=O)CCC(CCC(=O)N[C@@H](Cc2c(Sc3ccc(C(C)=O)cc3)[nH]c3ccccc23)C(=O)O)(CCC(=O)N[C@@H](Cc2c(Sc3ccc(C(C)=O)cc3)[nH]c3ccccc23)C(=O)O)NC(=O)CN)C(=O)O)cc1 [Compound 7c] was run?
Its IC50 is 13.3 µM.
